Measured values taken from patent publication US11554171B2, “Compounds and methods for the targeted degradation of bromodomain-containing proteins” (Arvinas Operations, Inc., priority 2015, dated 2023).

System: c-myc in 22RV-1 cells
Assay: Human c-myc ELISA assay
Type: cell-based
Details: Homo sapiens; for Emax: 22Rv1, 18 h, read-out: Degradation of BRD4: Maximum inhibition (%) c-Myc ELISA in 22RV1 cells; for DC50: 22Rv1, read-out: Degradation of BRD4: DC50 (uM) c-Myc ELISA in 22RV1 cells
Procedure, shortened: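 c-myc levels measured by ELISA in RIPA lysates of 22RV-1 cells, calibrated with a 333-0 pg/ml standard curve. Lysates came from cells exposed for 18 h to an 8-point, 1:3 dose series starting at 300 nM or 1 μM final in 0.1% DMSO. Suppression potency given as DC50.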

DC50 [µM]	SMILES	Emax [%]
0.01 to 0.1	Cc1ncsc1-c1ccc(CNC(=O)[C@@H]2C[C@@H](O)CN2C(=O)[C@H](C(C)C)n2cc(-c3ccnc(O[C@@H](C)CNC(=O)C[C@@H]4N=C(c5ccc(Cl)cc5)c5c(sc(C)c5C)-n5c(C)nnc54)c3)cn2)cc1 [Example 180]	98.5
0.1 to 1	CC(=O)N[C@H](C(=O)N1C[C@H](O)C[C@H]1C(=O)NCc1ccc(-c2scnc2C)cc1OCCOCCCOc1ccc(C2=N[C@@H](CC(=O)Nc3ccccc3)c3nnc(C)n3-c3sc(C)c(C)c32)cc1)C(C)(C)C [Example 181, (2S,4R)-1-[(2S)-2-acetamido-3,3-dimethylbutanoyl]-4-hydroxy-N-{[4-(4-methyl-1,3-thiazol-5-yl)-2-[2-(3-{4-[(9S)-4,5,13-trimethyl-9-[(phenylcarbamoyl)methyl]-3-thia-1,8,11,12-tetraazatricyclo[8.3.0.0^2,^6]trideca-2(6),4,7,10,12-pentaen-7-yl]phenoxy}propoxy)ethoxy]phenyl]methyl}pyrrolidine-2-carboxamide]	80.5
< 0.01	Cc1ncsc1-c1ccc([C@H](C)NC(=O)[C@@H]2C[C@@H](O)CN2C(=O)[C@@H](NC(=O)COCCCOC2CN(C(=O)C[C@@H]3N=C(c4ccc(Cl)cc4)c4c(sc(C)c4C)-n4c(C)nnc43)C2)C(C)(C)C)cc1 [Example 182]	100
0.01 to 0.1	Cc1ncsc1-c1ccc(CNC(=O)[C@@H]2C[C@@H](O)CN2C(=O)[C@@H](NC(=O)COCCCOc2ccc3c(c2)c2c(C(N)=O)cc(-c4c(C)noc4C)cc2n3Cc2ccccc2)C(C)(C)C)cc1 [Example 184]	91.5
0.01 to 0.1	Cc1ncsc1-c1ccc([C@H](C)NC(=O)[C@@H]2C[C@@H](O)CN2C(=O)[C@@H](NC(=O)[C@@H]2CC[C@H](COCCCNC(=O)C[C@@H]3N=C(c4ccc(Cl)cc4)c4c(sc(C)c4C)-n4c(C)nnc43)O2)C(C)(C)C)cc1 [Example 186]	94.5
0.01 to 0.1	Cc1ncsc1-c1ccc([C@H](C)NC(=O)[C@@H]2C[C@@H](O)CN2C(=O)[C@@H](NC(=O)[C@H]2CC[C@@H](COCCCNC(=O)C[C@@H]3N=C(c4ccc(Cl)cc4)c4c(sc(C)c4C)-n4c(C)nnc43)O2)C(C)(C)C)cc1 [Example 187]	98.5

SMILES	DC50 [µM]	Emax [%]
Cc1ncsc1-c1ccc([C@H](C)NC(=O)[C@@H]2C[C@@H](O)CN2C(=O)[C@@H](NC(=O)CCc2cc(F)cc(O[C@H]3C[C@@H](NC(=O)C[C@@H]4N=C(c5ccc(Cl)cc5)c5c(sc(C)c5C)-n5c(C)nnc54)C3)c2)C(C)(C)C)cc1 [Example 183, (2S,4R)-1-[(2S)-2-(3-{3-fluoro-5-[(1,3-cis)-3-{2-[(9S)-7-(4-chlorophenyl)-4,5,13-trimethyl-3-thia-1,8,11,12-tetraazatricyclo[8.3.0.0^2,^6]trideca-2(6),4,7,10,12-pentaen-9-yl]acetamido}cyclobutoxy]phenyl}propanamido)-3,3-dimethylbutanoyl]-4-hydroxy-N-[(1S)-1-[4-(4-methyl-1,3-thiazol-5-yl)phenyl]ethyl]pyrrolidine-2-carboxamide]	< 0.01	99
Cc1ncsc1-c1ccc([C@H](C)NC(=O)[C@@H]2C[C@@H](O)CN2C(=O)[C@@H](NC(=O)Cc2ccc(O[C@H]3C[C@@H](NC(=O)C[C@@H]4N=C(c5ccc(Cl)cc5)c5c(sc(C)c5C)-n5c(C)nnc54)C3)cc2)C(C)(C)C)cc1 [Example 185, (2S,4R)-1-[(2S)-3,3-dimethyl-2-(2-{4-[(1s,35)-3-{2-[(9S)-7-(4-chlorophenyl)-4,5,13-trimethyl-3-thia-1,8,11,12-tetraatetraazatricyclo[8.3.0.0^2,^6]trideca-2(6),4,7,10,12-pentaen-9-yl]acetamido}cyclobutoxy]phenyl}acetamido)butanoyl]-4-hydroxy-N-[(1S)-1-[4-(4-methyl-1,3-thiazol-5-yl)phenyl]ethyl]pyrrolidine-2-carboxamide]	< 0.01	99.5
